According to patent publication EP4624471A1, “PKMYT1 INHIBITOR, PREPARATION METHOD THEREFOR, AND PHARMACEUTICAL COMPOSITION AND USE THEREOF” (Shanghai Qilu Pharmaceutical Research and Development …, priority 2022, dated 2024):

Assays:
PKMYT1 enzyme = molecular target: T1, PKMYT1 enzyme (Homo sapiens, UniProt Q99640); assay: PKMYT1 enzyme inhibition activity, ADP-GLO method; format: biochemical; details: PKMYT1 enzyme 10 nM, ATP 5 µM, 37°C 90 minutes; read-out: ADP-GLO IC50
T1 construct: purchased Thermo Scientific A33387
T1 sequence (Q99640 1-499): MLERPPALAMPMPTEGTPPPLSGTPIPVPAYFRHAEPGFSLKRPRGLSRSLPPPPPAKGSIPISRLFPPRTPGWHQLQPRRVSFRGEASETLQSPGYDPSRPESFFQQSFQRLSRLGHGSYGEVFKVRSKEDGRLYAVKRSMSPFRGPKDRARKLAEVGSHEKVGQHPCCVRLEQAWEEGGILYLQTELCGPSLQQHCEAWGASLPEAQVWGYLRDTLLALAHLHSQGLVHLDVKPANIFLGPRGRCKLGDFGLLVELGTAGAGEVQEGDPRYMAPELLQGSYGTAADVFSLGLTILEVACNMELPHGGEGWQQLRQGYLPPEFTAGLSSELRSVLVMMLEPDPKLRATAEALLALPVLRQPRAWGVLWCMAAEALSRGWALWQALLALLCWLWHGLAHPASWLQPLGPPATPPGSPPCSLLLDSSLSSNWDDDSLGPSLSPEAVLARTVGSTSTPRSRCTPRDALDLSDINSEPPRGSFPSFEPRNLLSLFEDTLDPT
Protocol: Enzyme inhibition activity of compounds of the present disclosure
The enzyme activity of some of the example compounds was verified using the ADP-GLO method.
PKMYT1 enzyme protein was purchased from Thermo Scientific (Cat. No.: A33387), and the ADP-GLO kit was purchased from Promega (Cat. No.: V9103).
PKMYT1 enzyme activity reaction buffer: 70 mM HEPES, 3 mM MgCl2, 3 mM MnCl2, 50 µg mL-1PEG20000, 3 µM sodium orthovanadate, 1.2 mM DTT.
The reaction plate with the added compounds was centrifuged at 2500 rpm for 1 minute.
The prepared enzyme solution was added to the reaction plate, 5 µL per well, and the final concentration of enzyme was 10 nM. The reaction plate was centrifuged at 1000 rpm for 1 minute. The reaction plate was placed in an incubator at 37°C for 15 minutes.
The prepared ATP substrate solution was added to the reaction plate, 5 µL per well, and the final concentration of ATP was 5 µM. The reaction plate was centrifuged at 1000 rpm for 1 minute. After sealing the plate with aluminum foil, the plate was placed in an incubator and the reaction was carried out at 37°C for 90 minutes.
10 µL of ADP-glo™ reagent was added to stop the kinase reaction and consume unconsumed ATP, leaving only ADP and a very low ATP background. The reaction plate was centrifuged at 1000 rpm for 1 minute. After sealing the plate with aluminum foil, the reaction was carried out at room temperature for 60 minutes.
ADP was converted to ATP by adding 20 µL of kinase detection reagent, and luciferase and luciferin were introduced to detect ATP. The reaction plate was centrifuged at 1000 rpm for 1 minute. After sealing the plate with aluminum foil, the reaction was carried out at room temperature for 60 minutes.
The ADP-GLO luminescence signal values were read by the microplate reader PHERAstar, and the readings were analyzed.

HCC1569 cells = assay: Cytostatic activity, CTG assay (HCC1569); format: cell-based; details: 5 days
Protocol: Biological test example 2. Cytostatic activity of compounds of the present disclosure
CTG assay (HCC1569) was used to verify the biological activity of some of the example compounds of the present disclosure.
HCC1569 cells were purchased from ATCC (Cat. No.: CRL-2330) and cultured in a 37°C, 5% CO2 cell culture incubator. HCC1569 complete medium: RPMI-1640 liquid medium (Cat. No.: Gibico 11875-093), 20% FBS (Cat. No.: Gibico 10099-141), 1% Pen Strep (Cat. No.: Gibico 15070-063).
HCC1569 cells in a 75 cm^2 culture flask were digested with 2 mL of trypsin for 2-3 min, and then neutralized with 2 mL of 1640 complete medium. The mixture was centrifuged at 1200 rpm for 5 minutes. Cells were resuspended using 4 mL of 1640 complete medium. 500 µL of cell suspension was taken for cell counting using Vi-CELL-XR cell counter.
Using a Multidrop instrument, the HCC1569 cells were seeded in a 384-well plate at a density of 1000 cells per well (50 µL 1640 Growth Media) and administrated 24 hours later.
Using an ultra-micro pipette, the test compound (concentration: 3.33 mM, dissolved in DMSO) was diluted with 10 µM as the highest starting concentration, and then sequentially diluted in 10 gradients at a ratio of 1:3 (10000 nM, 3333 nM, 1111 nM, 370 nM, 123 nM, 41 nM, 13.7 nM, 4.6 nM, 1.5 nM, 0.5 nM) for administration treatment, with two duplicate wells for each concentration; 14 wells for positive and negative controls were set, with the positive control being the duplicate wells of 10 µM positive compound and the negative control being the duplicate wells of DMSO.
After the administration was completed, the cells were placed in a 37°C incubator for further culture for 5 days. After 5 days, 25 µL of CTG buffer was added to each well for CTG assay detection, and analyzed using a microplate reader. CTG readings were analyzed.
a = CTG value (highest concentration), b = CTG value (blank well), x = CTG value(test well).
IC50 was calculated using GraphPad PRISM 8.
Log10 (A compound concentration) was used for statistical calculation. (2) The data were input into GraphPad PRISM 8, and Analysis was selected. (3) Nonlinear regression (curve fit) was selected. (4) Log (inhibitor) vs. response-Variable slope was selected. (5) The calculation formula was selected, and the calculation was carried out according to the following formula: Y = Bottom + (Top-Bottom)/(1+10^((LogIC50-X)*HillSlope)), X: logarithm of dose or concentration, Y: response value, Top and Bottom: peak and bottom values. (6) The data were fitted to obtain IC50 values. (7) The fitting conditions were adjusted according to the specific data. Appropriate Constraint conditions were adjusted for Bottom, Top, and HillSlope. The curve that best fits the actual situation has been reached.

SMILES | IC50 (PKMYT1 enzyme) [nM] | IC50 (HCC1569 cells; Homo sapiens, HCC1569, 120 h) [nM] | IC50 (HCC1569 cells) [nM] | IC50 (HCC1569 cells; Homo sapiens, 120 h) [nM]
Cc1cc2c(C(N)=O)c(N)n(-c3c(C)c(O)cc(F)c3C)c2nc1-c1cccnc1 [Example 123] | 6.48 | 58 |  | 
Cc1c(O)cc(F)c(C)c1-n1c(N)c(C(N)=O)c2cc(Br)cnc21 [Example 99] | 9.68 | 40 |  | 
Cc1c(O)cc(F)c(C)c1-n1c(N)c(C(N)=O)c2cc3c(nc21)CCO3 [Example 181] | 34.8 | 63 |  | 
Cc1nc2c(cc1C1CC1)c(C(N)=O)c(N)n2-c1c(C)c(O)cc(F)c1C [Example 110] | 5.77 | 15 |  | 
Cc1cc(F)c(O)c(C)c1-n1c(N)c(C(N)=O)c2cc(C(C)C)c(C)nc21 (atropisomer, axis not shown) [Example 159.1] | 4.42 | 31 |  | 
Cc1nc2c(cc1C1=CCCC1)c(C(N)=O)c(N)n2-c1c(C)c(O)cc(F)c1C [Example 116] | 25.9 | 28 |  | 
Cc1c(O)cc(F)c(C)c1-n1c(N)c(C(N)=O)c2cc(-c3ccccc3)cnc21 (racemic) [Example 119] | 15.2 | 44 |  | 
Cc1nc2c(cc1N1CCOCC1)c(C(N)=O)c(N)n2-c1c(C)c(O)cc(F)c1C [Example 134] | 33.6 | 56 |  | 
Cc1c(O)cc(F)c(C)c1-n1c(N)c(C(N)=O)c2cc3c(nc21)CCC3 [Example 179] | 3.13 | 22 |  | 
Cc1c(O)cc(F)c(C)c1-n1c(N)c(C(N)=O)c2cc(-c3ccnn3C)cnc21 (racemic) [Example 118] | 4.1 | 65 |  | 
C=Cc1nc2c(cc1C)c(C(N)=O)c(N)n2-c1c(C)c(O)cc(F)c1C [Example 122] | 8.71 | 28 |  | 
Cc1c(O)cc(F)c(C)c1-n1c(N)c(C(N)=O)c2cc(C3CCCCC3)cnc21 [Example 102] | 27.3 | 82 |  | 
C#Cc1cnc2c(c1)c(C(N)=O)c(N)n2-c1c(C)c(O)cc(F)c1C [Example 101] | 6.8 | 94 |  | 
C=Cc1cc2c(C(N)=O)c(N)n(-c3c(C)cc(F)c(O)c3C)c2nc1C (atropisomer, axis not shown) [Example 142] | 20.7 | 88 |  | 
Cc1nc(C2CC2)c2c(C(N)=O)c(N)n(-c3c(C)ccc(O)c3C)c2n1 (atropisomer, axis not shown) [Example 62.2] | 14.4 | 60 |  | 
Cc1cc2c(C(N)=O)c(N)n(-c3c(C)c(O)cc(F)c3C)c2nc1C [Example 20, 2-amino-1-(3-fluoro-5-hydroxy-2,6-dimethylphenyl)-5,6-dimethyl-1H-pyrrolo[2,3-b]pyridine-3-carboxamide] | 15.3 | 40 |  | 
Cc1c(O)cc(F)c(C)c1-n1c(N)c(C(N)=O)c2cc(-c3ccccc3)cnc21 (atropisomer, axis not shown) [Example 119.1] | 4.66 | 18 |  | 
C=C(C)c1cnc2c(c1)c(C(N)=O)c(N)n2-c1c(C)c(O)cc(F)c1C (atropisomer, axis not shown) [Example 133] | 6.62 | 18 |  | 
CCc1cc2c(C(N)=O)c(N)n(-c3c(C)c(O)cc(F)c3C)c2nc1C (atropisomer, axis not shown) [Example 132.1] | 6.23 |  | 11 | 
Cc1nc2c(cc1-c1ncco1)c(C(N)=O)c(N)n2-c1c(C)c(O)cc(F)c1C [Example 121] | 5.11 | 21 |  | 
Cc1nc2c(cc1F)c(C(N)=O)c(N)n2-c1c(C)c(O)cc(F)c1C [Example 105] | 2.43 | 54 |  | 

SMILES | IC50 (PKMYT1 enzyme) [nM] | IC50 (HCC1569 cells; Homo sapiens, HCC1569, 120 h) [nM] | IC50 (HCC1569 cells) [nM] | IC50 (HCC1569 cells; Homo sapiens, 120 h) [nM]
Cc1cc(F)c(O)c(C)c1-n1c(N)c(C(N)=O)c2cc(Br)c(C)nc21 [Example 58, 2-Amino-5-bromo-1-(4-fluoro-3-hydroxy-2,6-dimethylphenyl)-6-methyl-1H-pyrrolo[2,3-b]pyridine-3-carboxamide] | 3.57 |  |  | 70
Cc1c(O)cc(F)c(C)c1-n1c(N)c(C(N)=O)c2cc(C(C)C)cnc21 (atropisomer, axis not shown) [Example 113.2] | 4.1 | 3 |  | 
Cc1cc(F)c(O)c(C)c1-n1c(N)c(C(N)=O)c2cc(C3CC3)c(C)nc21 (single isomer, unassigned) [Example 141.1] | 2.56 | 61 |  | 
Cc1cc(F)c(O)c(C)c1-n1c(N)c(C(N)=O)c2cc(C3CC3)c(C)nc21 (atropisomer, axis not shown) [Example 141] | 5.8 | 76 |  | 
Cc1cc(F)c(O)c(C)c1-n1c(N)c(C(N)=O)c2cc(C(C)C)c(C)nc21 (racemic) [Example 159] | 15.1 | 56.2 |  | 
Cc1c(O)cc(F)c(C)c1-n1c(N)c(C(N)=O)c2cc(C(C)C)cnc21 (racemic) [Example 113] | 8.33 | 18 |  | 
Cc1cc(F)c(O)c(C)c1-n1c(N)c(C(N)=O)c2cc(N(C)C)c(C)nc21 (atropisomer, axis not shown) [Example 169.1] | 6.31 | 78 |  | 
Cc1cc(F)c(O)c(C)c1-n1c(N)c(C(N)=O)c2c3c(c(C)nc21)CCC3 (atropisomer, axis not shown) [Example 176.2] | 10.2 | 68 |  | 
Cc1nc2c(cc1-c1cnn(C)c1)c(C(N)=O)c(N)n2-c1c(C)c(O)cc(F)c1C [Example 128] | 16.9 | 69 |  | 
Cc1nc2c(cc1C(F)(F)F)c(C(N)=O)c(N)n2-c1c(C)c(O)cc(F)c1C [Example 120, 2-amino-1-(3-fluoro-5-hydroxy-2,6-dimethylphenyl)-6-methyl-5-(trifluoromethyl)-1H-pyrrolo[2,3-b]pyridine-3-carboxamide] | 9.09 |  |  | 14
Cc1nc2c(cc1C1CCCC1)c(C(N)=O)c(N)n2-c1c(C)c(O)cc(F)c1C [Example 112] | 33.8 | 18 |  | 
Cc1nc2c(cc1-c1cccnc1)c(C(N)=O)c(N)n2-c1c(C)c(O)cc(F)c1C [Example 131] | 11.2 | 23 |  | 
C=Cc1cc2c(C(N)=O)c(N)n(-c3c(C)c(O)cc(F)c3C)c2nc1C (racemic) [Example 111] | 3.57 | 13 |  | 
Cc1nc2c(cc1-c1ccncc1)c(C(N)=O)c(N)n2-c1c(C)c(O)cc(F)c1C [Example 129] | 10.5 | 38 |  | 
CCc1nc2c(cc1C)c(C(N)=O)c(N)n2-c1c(C)c(O)cc(F)c1C [Example 136] | 9.9 | 21 |  | 
Cc1cc2c(C(N)=O)c(N)n(-c3c(C)c(O)cc(F)c3C)c2nc1C (atropisomer, axis not shown) [Example 21] | 4.13 |  | 20 | 
Cc1cc(F)c(O)c(C)c1-n1c(N)c(C(N)=O)c2cc(C(C)C)cnc21 (atropisomer, axis not shown) [Example 170.2] | 10 | 80 |  | 
Cc1nc2c(cc1-c1nccs1)c(C(N)=O)c(N)n2-c1c(C)c(O)cc(F)c1C [Example 127] | 9.17 | 14 |  | 
Cc1c(O)cc(F)c(C)c1-n1c(N)c(C(N)=O)c2cc(Cl)cnc21 [Example 81] | 9.19 | 66 |  | 
COc1ncc2c(C(N)=O)c(N)n(-c3c(C)ccc(O)c3C)c2n1 [Example 46, 6-Amino-7-(3-hydroxy-2,6-dimethylphenyl)-2-methoxy-7H-pyrrolo[2,3-d]pyrimidine-5-carboxamide] | 43.6 |  |  | 
